{"source": "patent US20030198941A1", "about": "“Method for making an HIV vaccine” (priority 2000, published 2003)", "key": {"[1]": {"target": "rhesus MHC class I molecule Mamu-A*01 (rhesus macaque)", "assay": "competition with 125I-labeled […] for Mamu-A*01; (1.0-relative binding average)x100"}, "[2]": {"target": "rhesus MHC class I molecule Mamu-A*01 (rhesus macaque)", "assay": "competition with 125I-labeled […] for Mamu-A*01; relative to […]"}, "[3]": {"test_system": "rhesus MHC class I molecule Mamu-A*01", "assay": "Mamu-A*01 peptide binding assay (inhibition of binding of a radiolabeled probe peptide)", "parameters": "species or system rhesus macaque", "conditions": "for % Binding reduction: (1.0-relative binding average)x100, versus index peptide STPESANL; for IC50: soluble Mamu-A*01; for Relative Binding Average: relative to the binding affinity of Tat28-35 STPESANL to Mamu-A*01", "description": "Quantitative assays for the binding of peptides to soluble Mamu-A*01 molecules on the basis of the inhibition of binding of a radiolabeled standard probe peptide to detergent-solubilized MHC molecules were performed as previously described (Allen, T. M., et al., J. Immunol. 160:6062-6071, 1998). A position 1 C→A analog of the SIV gag 181-190 peptide ([…]) was utilized as the radiolabeled probe. In the case of competitive assays, the concentration of peptide yielding 50% inhibition of the binding of the radiolabeled probe peptide was calculated. Peptides were initially tested at one or two high doses. The IC50 of peptides yielding positive inhibition were then determined in subsequent experiments, in which two to six further dilutions were tested, as necessary. Since under the conditions to be utilized, where [label]<[MHC] and IC50 ≧[MHC], the measured IC50 values are reasonable approximations of the true Kd values. Each competitor peptide was tested in two to four completely independent experiments. As a positive control, in each experiment the unlabeled version of the radiolabeled probe was tested and its IC50 measured."}, "[4]": {"test_system": "CTL lines stimulated with the SL8 index peptide", "assay": "CTL analyses of SL8-stimulated T-cell lines against index and variant peptides", "format": "cell-based, rhesus macaque", "conditions": "E:T ratio 25:1, three peptide dilutions", "description": "FIG. 3 is a set of six graphs describing CTL analyses of CD8-positive T-lymphocyte cell lines stimulated with SL8 peptide. Cell lines were stimulated with the index peptide (SL8) and autologous B-LCL. After 2 weeks in culture, these T-cell lines were used in CTL analyses at an Effector:Target (E:T) ratio of 25:1 with the index peptide and the variants. Three different dilutions of peptides were tested.\nCTL cultures were established from peripheral blood samples of SIV-infected rhesus macaques drawn in EDTA tubes and CTL were cultured and assayed as previously described (Evans, D. T., et al., supra, 1999)."}, "[5]": {"test_system": "epitope-specific CD8+ PBMC of SIV-infected animals", "format": "cell-based, rhesus macaque", "conditions": "for EC50: read-out: ½maximal IFN-γ release (peptide concentration); for avidity of CTL response: PBMC specific for late escaping epitopes"}, "[6]": {"test_system": "Tat SL8- and Gag CM9-specific CTL lines", "assay": "51Cr-release cytotoxicity assay with peptide dilutions, in vitro CTL lines", "format": "cell-based, rhesus macaque", "conditions": "CTL lines generated with high (1 μM) and low (1 nM) peptide; read-out: ½maximal specific lysis (peptide concentration)"}, "[7]": {"target": "rhesus MHC class I molecule Mamu-A*01 (rhesus macaque)"}, "[8]": {"test_system": "epitope-specific CTL lines", "assay": "Intracellular IFN-γ staining (ICS) with peptide dilutions, in vitro CTL lines", "format": "cell-based, rhesus macaque", "conditions": "for avidity of CTL response: CTL lines against acute escaped epitopes"}, "[9]": {"conditions": "competition against 125-labeled peptide ATPYDINQML"}, "[10]": {"conditions": "competition against 125-labeled peptide […]"}}, "note": "Where “and” joins values, the source holds several entries; their conditions need not be identical. Equal entries are not always repeated. Where two headings read alike, the source gives them in different places."}
{"substance": "Tat28-35 variant ----L-- (leucine at P5) (peptide)", "values": [{"measurement": "% Binding reduction", "setting": "[1]", "value": 85, "unit": "%"}, {"measurement": "Relative Binding Average", "setting": "[2]", "value": 0.155}]}
{"substance": "variant of the Tat STPESANL epitope with leucine at P5 [----L--]", "values": [{"measurement": "% Binding reduction", "setting": "[3]", "value": 85, "unit": "%"}, {"measurement": "% Binding reduction", "setting": "[3]; listed as leucine at P5", "value": "> 80", "unit": "%"}, {"measurement": "% Binding reduction", "setting": "[3]; listed as leucine substitution at P5", "value": "more than 80%"}, {"measurement": "IC50", "setting": "[3]; [9]", "value": 281, "unit": "nM"}, {"measurement": "Relative Binding Average", "setting": "[3]", "value": 0.155}, {"measurement": "CTL recognition / sensitizing targets for CTL lysis", "setting": "[4]", "value": "least efficient at sensitizing targets for CTL lysis"}]}
{"substance": "CTPYDINQM [Gag CM9]", "values": [{"measurement": "EC50", "setting": "[5]", "value": 8, "unit": "nM"}, {"measurement": "EC50", "setting": "[6]", "value": "1 to 10 nM and 1 to 40 nM"}]}
{"substance": "variant of the Tat STPESANL epitope with proline at P8 [------P]", "values": [{"measurement": "% Binding reduction", "setting": "[3]", "value": ">99", "unit": "%"}, {"measurement": "IC50", "setting": "[3]; [10]", "value": 4570, "unit": "nM"}, {"measurement": "Relative Binding Average", "setting": "[3]", "value": 0.009}]}
{"substance": "Tat28-35 variant ------P (proline at P8) (peptide)", "values": [{"measurement": "% Binding reduction", "setting": "[1]", "value": "> 99", "unit": "%"}, {"measurement": "Relative Binding Average", "setting": "[2]", "value": 0.009}]}
{"substance": "Tat28-35 variant P------ (proline at P1) (peptide)", "values": [{"measurement": "Relative Binding Average", "setting": "[2]", "value": 0.43}, {"measurement": "% Binding reduction", "setting": "[7]", "value": 67, "unit": "%"}]}
{"substance": "variant of the Tat STPESANL epitope with arginine at P8 [------R]", "values": [{"measurement": "% Binding reduction", "setting": "[3]", "value": ">99", "unit": "%"}, {"measurement": "IC50", "setting": "[3]; [10]", "value": 15100, "unit": "nM"}, {"measurement": "Relative Binding Average", "setting": "[3]", "value": 0.003}]}
{"substance": "GLDKGLSSL [GL9]", "values": [{"measurement": "avidity of CTL response", "setting": "[8]", "value": "high avidity"}]}
{"substance": "YTSGPGIRY [YY9]", "values": [{"measurement": "avidity of CTL response", "setting": "[8]", "value": "high avidity"}]}
{"substance": "variant of the Tat STPESANL epitope with proline at P1 [P------]", "values": [{"measurement": "% Binding reduction", "setting": "[3]", "value": 67, "unit": "%"}, {"measurement": "% Binding reduction", "setting": "[3]; listed as proline at P1", "value": "more than 50%"}, {"measurement": "% Binding reduction", "setting": "[3]; listed as proline substitution at P1", "value": "more than 50%"}, {"measurement": "IC50", "setting": "[3]; [10]", "value": 100, "unit": "nM"}, {"measurement": "Relative Binding Average", "setting": "[3]", "value": 0.43}]}
{"substance": "variant of the Tat STPESANL epitope with isoleucine at P2 [-I----]", "values": [{"measurement": "% Binding reduction", "setting": "[3]", "value": ">99", "unit": "%"}, {"measurement": "IC50", "setting": "[3]; [10]", "value": 4610, "unit": "nM"}, {"measurement": "Relative Binding Average", "setting": "[3]", "value": 0.009}]}
{"substance": "variant of the Tat STPESANL epitope with glutamine at P8 [------Q]", "values": [{"measurement": "% Binding reduction", "setting": "[3]", "value": ">99", "unit": "%"}, {"measurement": "IC50", "setting": "[3]; [9]", "value": 13200, "unit": "nM"}, {"measurement": "Relative Binding Average", "setting": "[3]", "value": 0.003}]}
{"substance": "Tat28-35 variant ------R (arginine at P8) (peptide)", "values": [{"measurement": "% Binding reduction", "setting": "[1]", "value": "> 99", "unit": "%"}, {"measurement": "Relative Binding Average", "setting": "[2]", "value": 0.003}]}
{"substance": "ARRHRILDIYL [Nef_AL11]", "values": [{"measurement": "avidity of CTL response", "setting": "[5]; ICS", "value": "low avidity"}]}
{"substance": "Tat28-35 variant -I---- (isoleucine at P2) (peptide)", "values": [{"measurement": "% Binding reduction", "setting": "[1]", "value": "> 99", "unit": "%"}, {"measurement": "Relative Binding Average", "setting": "[2]", "value": 0.009}]}
{"substance": "KRQQELLRL [Env_KL9]", "values": [{"measurement": "avidity of CTL response", "setting": "[5]; ICS", "value": "low avidity"}]}
{"substance": "Tat28-35 variant ------Q (glutamine at P8) (peptide)", "values": [{"measurement": "% Binding reduction", "setting": "[1]", "value": "> 99", "unit": "%"}, {"measurement": "Relative Binding Average", "setting": "[2]", "value": 0.003}]}
{"substance": "STPESANL", "values": [{"measurement": "EC50", "setting": "[5]; epitope-specific PBMC, ICS", "value": 0.11, "unit": "nM"}, {"measurement": "EC50", "setting": "[8]; CTL lines generated in vitro, read-out: ½maximal IFN-γ production (peptide concentration)", "value": "< 0.5", "unit": "nM"}, {"measurement": "EC50", "setting": "[6]", "value": "0.05 to 0.1", "unit": "nM"}]}
{"substance": "GDYKLVEI [Env_GI8]", "values": [{"measurement": "avidity of CTL response", "setting": "[5]; ICS", "value": "low avidity"}]}
